Source: patent US20260259195A1, “REAL-TIME TRACKING OF APOPTOSIS” (FUNDACIÓ INSTITUT DE BIOENGINYERIA DE CATALUNYA (IBEC), priority 2022, published 2026)
“Also recorded” adds a separate entry of the source. Where two headings read alike, the source gives them in different places.

Tests used:
GIST-T1/670 cell line [1] = settings: 16 h drug pre-treatment (imatinib 1000 nM, gefitinib 1000 nM); BIM peptide titration with digitonin
GIST-T1/670 cell line [2] = experiment: RTA with fluorescence microscopy (TMRE); type: cell-based; settings: 16 h drug pre-treatment; titration of combination A, 3 hours
GIST-T1 cell line [3] = experiment: Real-time tracking of apoptosis (RTA) with flow cytometry; type: cell-based; settings: 16 h drug pre-treatment; titration of combination A, 3 hours
GIST-T1 cell line [4] = settings: 16 h drug pre-treatment (imatinib 1000 nM, gefitinib 1000 nM); BIM peptide titration with digitonin
GIST-T1 cells = settings: 16 h drug pre-treatment; combination A gradient generated by the device
GIST-T1/670 cell line [5] = experiment: Real-time tracking of apoptosis (RTA) with flow cytometry; type: cell-based; settings: 16 h drug pre-treatment; titration of combination A, 3 hours
GIST-T1 cell line [6] = settings: 16 h drug pre-treatment; for Percentage of TMRE positive cells, dose-response curve versus control: titration of combination A, 3 hours

COc1cc2ncnc(Nc3ccc(F)c(Cl)c3)c2cc1OCCCN1CCOCC1 [gefitinib]
Percentage of cytochrome c retained, dose-response curve versus control (GIST-T1/670 cell line [1]): the same dose-response curve | Percentage of TMRE positive cells, dose-response curve versus control (GIST-T1/670 cell line [2]): produced an unaltered curve | Percentage of cytochrome c retained, dose-response curve versus control (GIST-T1 cell line [3]): produced the same curve as the control conditions | Percentage of cytochrome c retained, dose-response curve versus control (GIST-T1 cell line [4]): showed a similar profile as the control | Percentage of TMRE positive cells, dose-response curve versus control (GIST-T1 cells): the same response | Percentage of cytochrome c retained, dose-response curve versus control (GIST-T1/670 cell line [5]): produced the same curve as the control conditions | Percentage of TMRE positive cells, dose-response curve versus control (GIST-T1 cell line [6]): this was not observed

Cc1ccc(NC(=O)c2ccc(CN3CCN(C)CC3)cc2)cc1Nc1nccc(-c2cccnc2)n1 [imatinib]
Percentage of TMRE positive cells, dose-response curve versus control (GIST-T1/670 cell line [2]): produced an unaltered curve | Δ% priming (GIST-T1 cell line [6]; microscopy RTA with combination A): a clear increase in apoptotic priming; also recorded: increase of apoptotic priming | Percentage of TMRE positive cells, dose-response curve versus control (GIST-T1 cell line [6]): caused a shift of the curve identifying an increase in apoptotic priming; also recorded: induction of apoptotic priming
